The mark [1] stands for this setting: CCI-779 final population model, whole blood, RCC patients.
[2] abbreviates: CCI-779 model, 1,000 bootstrap sample runs.

The text below walks through data of patent publication US7643943B2, “Methods for monitoring drug activities in vivo” (Wyeth LLC, priority 2003, dated 2010).
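Note: population pharmacokinetic analysis in NONMEM of pooled full and sparse blood sampling from patients, exponential error on kinetic parameters, proportional residual error, bootstrap check over 1,000 resamples.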

Protocol: In a randomized, double-blind, multicenter trial, once-weekly intravenous doses of 25-, 75-, or 250-mg of CCI-779 were administered to patients with advanced renal cancer that were either previously treated, or untreated and not appropriate candidates for high dose interlukin-2 therapy. Whole blood for CCI-779 and metabolite concentrations was drawn for population pharmacokinetic analysis, and Bayesian-predicted area under the concentration-time curves for parent drug (AUC), parent plus metabolite (AUCsum), and cumulative AUC and AUCsum were derived.
For CCI-779 clearance, factors for dose, attenuation of exposure with multiple-dose, and effect of body surface area were included.
The following examples were based on a randomized, double-blind, multicenter, outpatient phase 2 study of CCI-779 administered by 30 minute intravenous infusion (via an automatic dispensing pump) in patients with advanced RCC. Eligible patients were randomly assigned to treatment in a 1:1:1 ratio to receive 25 mg, 75 mg, or 250 mg of CCI-779 weekly until evidence of disease progression.
Full pharmacokinetic profiling was planned in a subset of patients, with remaining patients to provide sparse sampling.
The bioanalytical method for CCI-779 was performed using whole blood in a liquid chromatography/tandem mass spectrometry (LC/MS/MS) procedure with deuterated internal standard.
In order to characterize the pharmacokinetic profiles of patients providing sparse blood sampling, fully and sparsely sampled patient data were analyzed collectively using a population pharmacokinetic method and the NONMEM application (version 1.0, Revision 5.0 on Windows NT 4.0 computer with Pentium processor, NONMEM Project Group, University of California at San Francisco, Calif.). […] Data were therefore modeled separately and segregated by analyte into two separate data sets with dose, time/duration of administration, and demographic information. […] Construction of the NONMEM infile was performed using SAS (version 8.1) on a Sun Microsystems mainframe computer with Sun OS 5.8. […] In both cases, the model-derived value for AUC for a given patient and analyte were obtained from the quotient of CCI-779 Dose/Clearance (CL), in which CL was obtained from Bayesian estimation and the POSTHOC option of NONMEM.
During model building, an exponential error model was applied to the kinetic model.

As to `CO[C@H]1C[C@@H]2CC[C@@H](C)[C@@](O)(O2)C(=O)C(=O)N2CCCC[C@H]2C(=O)O[C@H]([C@H](C)C[C@@H]2CC[C@@H](OC(=O)C(C)(CO)CO)[C@H](OC)C2)CC(=O)[C@H](C)/C=C(\C)[C@@H](O)[C@@H](OC)C(=O)[C@H](C)C[C@H](C)/C=C/C=C/C=C/1C` [CCI-779], under “CCI-779 final population model”, the “Inter-Patient Variability % on CL” value was 23.7%; the “Inter-Patient Variability % on V2” value is 44.1%; the “Inter-Patient Variability % on V3” value is 129%; the “Intersubject variability on CL (ω^21), final model parameter estimate” value is listed as 0.056. For the same compound, under “CCI-779 final population model”, the “Intersubject variability on V2 (ω^22), final model parameter estimate” value is given as 0.194; the “Intersubject variability on V3 (ω^23), final model parameter estimate” value was 1.67; the “Proportional error (ε^2), final model parameter estimate” value is recorded as 0.157. Under setting [1], the “V1 (θ2), parameter estimate” value is recorded as 37.6 L; the “V2 (θ4), parameter estimate” value is given as 271 L; the “V3 (θ6), parameter estimate” value is on record as 323 L. In addition, the “Q2 (θ3), parameter estimate” value (CCI-779 final population model, TVQ2=6.48*DOSE^0.551) is reported as 6.48 L/h. The “Q3 (θ5), parameter estimate” value (CCI-779 final population model, TVQ3=0.258*DOSE^0.551) is listed as 0.258 L/h. Besides, the “INTR, inter-period variability on CL (θ8), parameter estimate” value (CCI-779 final population model, factor for multiple doses (DNUM=1)) is given as 0.103. Besides, under setting [2], the “Inter-period variability on CL (θ8), bootstrap sample median” value is reported as 0.110; the “Intersubject variability on CL (ω^21), bootstrap sample median” value is given as 0.215; the “Intersubject variability on V2 (ω^22), bootstrap sample median” value was 0.414; the “Intersubject variability on V3 (ω^23), bootstrap sample median” value stood at 1.08. Further, under setting [2], the “Proportional error (ε^2), bootstrap sample median” value amounted to 0.383; the “Q2 (θ3), bootstrap sample median” value is 6.46 L/h; the “Q3 (θ5), bootstrap sample median” value stood at 0.267 L/h; the “V1 (θ2), bootstrap sample median” value is 38.3 L. Besides, under setting [2], the “V2 (θ4), bootstrap sample median” value was 275 L and the “V3 (θ6), bootstrap sample median” value is recorded as 339 L. The “increase of clearance with BSA” value (for a given dose, patients with BSA values that range from 1.5 to 2 m^2) is “approximately 45%”.
